Test results: US8410302B2, “Methoxyimino compounds and fungicide composition comprising same” (Kyung Nong Corporation, priority 2007, dated 2013)
Where two headings read alike, the source gives them in different places.

Experiments:
[1] = tested on: Rhizoctonia solani AG-1; assay: Fungicidal activity against rice sheath blight (RSB) disease, control value; details: for pest or weed control at 2 ppm / pest or weed control at 10 ppm / pest or weed control at 50 ppm / pest or weed control at 100 ppm: Rhizoctonia solani, AG1, in Oryza sativa, read-out: RSB control value (C.V.)
[2] = tested on: Puccinia recondita; assay: Fungicidal activity against wheat leaf rust (WLR) disease, control value; type: in vivo; details: for pest or weed control at 2 ppm / pest or weed control at 10 ppm / pest or weed control at 50 ppm / pest or weed control at 100 ppm: read-out: WLR control value (C.V.)
[3] = tested on: Botrytis cinerae; assay: Fungicidal activity against cucumber gray mold rot (CGM) disease, control value; type: in vivo
[4] = tested on: Phytophthora infestans; assay: whole plant or invertebrate; type: in vivo; details: for pest or weed control at 2 ppm / pest or weed control at 10 ppm / pest or weed control at 50 ppm / pest or weed control at 100 ppm: Phytophthora infestans, in Solanum lycopersicum, read-out: TLB control value (C.V.); for TLB control value (C.V.): tomato late blight
[5] = tested on: Erysiphae graminis; assay: Fungicidal activity against barley powdery mildew (BPM) disease, control value; type: in vivo; details: for pest or weed control at 2 ppm / pest or weed control at 10 ppm / pest or weed control at 50 ppm / pest or weed control at 100 ppm: 168 h, read-out: BPM control value (C.V.)
[6] = tested on: Pyricularia oryzae Carvara KA301; assay: whole plant or invertebrate; type: in vivo; details: for pest or weed control at 2 ppm / pest or weed control at 10 ppm / pest or weed control at 50 ppm / pest or weed control at 100 ppm: Pyricularia oryzae, read-out: RCB control value (C.V.); for RCB control value (C.V.): rice blast
[7] = Botrytis, 100 ppm, cucumber gray mold rot, read-out: CGM control value (C.V.)
[8] = Hordeum vulgare, 2 ppm, barley powdery mildew
[9] = Hordeum vulgare, 10 ppm, barley powdery mildew
[10] = Hordeum vulgare, 50 ppm, barley powdery mildew
[11] = Hordeum vulgare, 100 ppm, barley powdery mildew
[12] = Botrytis, 100 ppm, read-out: CGM control value (C.V.)

| Compound | pest or weed control at 2 ppm [1] | pest or weed control at 10 ppm [1] | pest or weed control at 50 ppm [1] | pest or weed control at 100 ppm [1] | pest or weed control at 100 ppm ([2]; 100 ppm, wheat leaf rust) | pest or weed control at 100 ppm [3, 7] | pest or weed control at 2 ppm [4] | pest or weed control at 10 ppm [4] | pest or weed control at 50 ppm [4] | pest or weed control at 100 ppm [4] | pest or weed control at 100 ppm [5, 11] | pest or weed control at 2 ppm [6] | pest or weed control at 10 ppm [6] | pest or weed control at 50 ppm [6] | pest or weed control at 100 ppm [6] | pest or weed control at 2 ppm ([2]; Puccinia recondita, 2 ppm) | pest or weed control at 10 ppm ([2]; Puccinia recondita, 10 ppm) | pest or weed control at 50 ppm ([2]; Puccinia recondita, 50 ppm) | pest or weed control at 100 ppm ([2]; Puccinia recondita, 100 ppm) | pest or weed control at 2 ppm ([5]; 2 ppm) | also measured |
| --- | --- | --- | --- | --- | --- | --- | --- | --- | --- | --- | --- | --- | --- | --- | --- | --- | --- | --- | --- | --- | --- |
| CO/N=C(/C(=O)OC)c1ccccc1COc1ccc(C)cc1C=C(Cl)Cl [Example 45, methyl-(E)-2-(2-((2-(2,2-dichlorovinyl)-4-methylphenoxy)methyl)phenyl)-2-methoxyiminoacetate] | 100% | 100% | 100% | 100% | 100% | 35% | 92% | 98% | 100% | 100% | 100% | 100% | 100% | 100% | 100% |  |  |  |  |  | pest or weed control at 2 ppm ([2]; 2 ppm, wheat leaf rust): 100%; pest or weed control at 10 ppm ([2]; 10 ppm, wheat leaf rust): 100%; pest or weed control at 50 ppm ([2]; 50 ppm, wheat leaf rust): 100%; pest or weed control at 2 ppm [5, 8]: 100%; pest or weed control at 10 ppm [5, 9]: 100%; pest or weed control at 50 ppm [5, 10]: 100% |
| CCOc1cc(C=C(Cl)Cl)ccc1OCc1ccccc1/C(=N\OC)C(=O)OC [Example 59, methyl-(E)-2-(2-((4-(2,2-dichlorovinyl)-2-ethoxyphenoxy)methyl)phenyl)-2-methoxyiminoacetate] | 98% | 100% | 100% | 100% |  |  | 98% | 100% | 100% | 100% |  | 97% | 100% | 100% | 100% | 90% | 100% | 100% | 100% | 98% | pest or weed control at 100 ppm [3, 12]: 65%; pest or weed control at 10 ppm ([5]; 10 ppm): 100%; pest or weed control at 50 ppm ([5]; 50 ppm): 100%; pest or weed control at 100 ppm ([5]; 100 ppm): 100% |
| CNC(=O)/C(=N/OC)c1ccccc1COc1ccc(C=C(Br)Br)cc1C [Example 66, (E)-2-(2-((4-(2,2-dibromovinyl)-2-methylphenoxy)methyl)phenyl)-2-methoxyimino-N-methylacetamide] | 65% | 98% | 100% | 100% |  |  | 75% | 90% | 98% | 100% |  | 60% | 90% | 100% | 100% | 95% | 100% | 100% | 100% | 97% | pest or weed control at 100 ppm [3, 12]: 45%; pest or weed control at 10 ppm ([5]; 10 ppm): 100%; pest or weed control at 50 ppm ([5]; 50 ppm): 100%; pest or weed control at 100 ppm ([5]; 100 ppm): 100% |
| CO/N=C(/C(=O)OC)c1ccccc1CON=C(C)c1ccc(C=C(Cl)Cl)cc1 [Example 21, methyl-(E)-2-[[[[[2-[4-(2,2-dichlorovinyl)phenyl](1-methyl)methylidene]amino]oxy]methyl]phenyl]-2-methoxyiminoacetate] |  |  |  |  |  |  |  |  |  |  |  |  |  |  |  |  |  |  |  |  | RSB control value (C.V.) ([1]; 100 ppm, rice sheath blight): 60%; WLR control value (C.V.) ([2]; 2 ppm, wheat leaf rust): 40%; WLR control value (C.V.) ([2]; 10 ppm, wheat leaf rust): 90%; WLR control value (C.V.) ([2]; 50 ppm, wheat leaf rust): 100%; WLR control value (C.V.) ([2]; 100 ppm, wheat leaf rust): 100%; CGM control value (C.V.) ([3]; 100 ppm, cucumber gray mold rot): 50%; TLB control value (C.V.) ([4]; 2 ppm): 0%; TLB control value (C.V.) ([4]; 10 ppm): 35%; TLB control value (C.V.) ([4]; 50 ppm): 95%; TLB control value (C.V.) ([4]; 100 ppm): 98%; BPM control value (C.V.) ([5]; 2 ppm, barley powdery mildew): 20%; BPM control value (C.V.) ([5]; 10 ppm, barley powdery mildew): 50%; BPM control value (C.V.) ([5]; 50 ppm, barley powdery mildew): 95%; BPM control value (C.V.) ([5]; 100 ppm, barley powdery mildew): 95%; RCB control value (C.V.) ([6]; 2 ppm): 30%; RCB control value (C.V.) ([6]; 10 ppm): 90%; RCB control value (C.V.) ([6]; 50 ppm): 100%; RCB control value (C.V.) ([6]; 100 ppm): 100% |
| CNC(=O)/C(=N/OC)c1ccccc1COc1ccc(C=C(Cl)Cl)cc1Br [Example 54, (E)-2-(2-((2-bromo-4-(2,2-dichlorovinyl)phenoxy)methyl)phenyl)-2-methoxyimino-N-methylacetamide] | 90% | 98% | 100% | 100% |  |  | 93% | 95% | 100% | 100% |  | 30% | 90% | 100% | 100% | 100% | 100% | 100% | 100% | 100% | pest or weed control at 100 ppm [3, 12]: 65%; pest or weed control at 10 ppm ([5]; 10 ppm): 100%; pest or weed control at 50 ppm ([5]; 50 ppm): 100%; pest or weed control at 100 ppm ([5]; 100 ppm): 100% |
| CO/N=C(/C(=O)OC)c1ccccc1COc1ccc(C=C(Cl)Cl)cc1Br [Example 53, methyl-(E)-2-(2-((2-bromo-4-(2,2-dichlorovinyl)phenoxy)methyl)phenyl)-2-methoxyiminoacetate] | 85% | 98% | 100% | 100% | 100% | 50% | 90% | 99% | 100% | 100% | 100% | 70% | 97% | 100% | 100% | 100% |  |  |  | 100% | pest or weed control at 10 ppm ([2]; 10 ppm, wheat leaf rust): 100%; pest or weed control at 50 ppm ([2]; 50 ppm, wheat leaf rust): 100%; pest or weed control at 10 ppm [5, 9]: 100%; pest or weed control at 50 ppm [5, 10]: 100% |
| CO/N=C(/C(=O)OC)c1ccccc1COc1cccc(C=C(Br)Br)c1 [Example 5, methyl-(E)-2-(2-((3-(2,2-dibromovinyl)phenoxy)methyl)phenyl)-2-methoxyiminoacetate] |  |  |  | 32% | 92% | 34% |  |  | 55% | 93% | 87% | 90% | 97% | 100% | 100% |  |  |  |  |  |  |
| CO/N=C(/C(=O)OC)c1ccccc1COc1ccc(C=C(Cl)Br)cc1 [Example 17, methyl-(2E)-2-(2-((4-(2-bromo-2-chlorovinyl)phenoxy)methyl)phenyl)-2-methoxyiminoacetate] |  |  |  | 90% | 100% | 50% |  | 10% | 90% | 100% | 95% | 70% | 100% | 100% | 100% |  |  |  |  |  | pest or weed control at 2 ppm ([2]; 2 ppm, wheat leaf rust): 100%; pest or weed control at 10 ppm ([2]; 10 ppm, wheat leaf rust): 100%; pest or weed control at 50 ppm ([2]; 50 ppm, wheat leaf rust): 100%; pest or weed control at 2 ppm [5, 8]: 35%; pest or weed control at 10 ppm [5, 9]: 90%; pest or weed control at 50 ppm [5, 10]: 93% |
| CNC(=O)/C(=N/OC)c1ccccc1COc1cc(Br)ccc1C=C(Cl)Cl [Example 62, (E)-2-(2-((5-bromo-2-(2,2-dichlorovinyl)phenoxy)methyl)phenyl)-2-methoxyimino-N-methylacetamide] | 93% | 100% | 100% | 100% |  |  | 99% | 100% | 100% | 100% |  | 90% | 99% | 100% | 100% | 100% | 100% | 100% | 100% | 99% | pest or weed control at 50 ppm ([3]; Botrytis, 50 ppm, read-out: CGM control value (C.V.)): 30%; pest or weed control at 100 ppm [3, 12]: 85%; pest or weed control at 10 ppm ([5]; 10 ppm): 100%; pest or weed control at 50 ppm ([5]; 50 ppm): 100%; pest or weed control at 100 ppm ([5]; 100 ppm): 100% |
